Measurements from patent US20150173356A1, “COMPOSITIONS OF VOLATILE ORGANIC COMPOUNDS AND METHODS OF USE THEREOF” (Synthetic Genomics, Inc., priority 2009, published 2015).

Columns and labels:
Experiment in all cases: Petri plate (PDA) volatile bioassay, liquid in a small cup in the centre of the plate
Assay type in all cases: cell-based
Details in all cases: 2.5-20 microliters in cup, sealed plate, 3 days
[1] = tested on: Ganoderma boninense
Procedure: (§1) To test the bioactivity, the mixture was placed in a small cup in the center of a Petri plate with potato dextrose agar (PDA) (Strobel et al., 2001 Microbiology 147: 2943-2950). The volumes of liquid tested were 0, 2.5, 5.0, 10.0 and 20 microliters as per Strobel et al., supra. Then small cubes of fungal inoculum grown on PDA were also applied to the plate. The plates were sealed with parafilm and incubated for 3 days, at which time measurements of hyphal development were made. Also, after 3 days the small plug of fungal inoculum was removed from the plate and transferred to a fresh PDA plate to determine if the test fungus was still alive (capable of growth) and this was recorded.

[2] = tested on: Phytophthora palmivora
Procedure: as §1

[3] = tested on: Pythium ultimum
Procedure: as §1

SMILES | growth inhibition (hyphal development) [1] | test fungus still alive (capable of growth) after transfer of inoculum plug to fresh PDA [1] | growth inhibition (hyphal development) [2] | test fungus still alive (capable of growth) after transfer of inoculum plug to fresh PDA [2] | growth inhibition (hyphal development) [3] | test fungus still alive (capable of growth) after transfer of inoculum plug to fresh PDA [3]
CC(C)C(=O)O [isobutyric acid, 2-methyl propanoic acid] | inhibited | not killed | inhibited | not killed | inhibited | not killed
COC(=O)C(C)C [methyl isobutyrate, methyl-2-methylpropanoate] | no growth inhibition | – | no growth inhibition | – | no growth inhibition | –
